Data on 23 compounds can be found in patent US12570675B2, “Boronic acid compounds” (LG CHEM, LTD., priority 2020, dated 2026).

The target of the test is Proteasome chymotrypsin-like activity (S26 protein from RPMI8226 cells) (Homo sapiens, UniProt P28074). It counts as biochemical. Conditions: S26 protein from RPMI8226 cell extract 2 ug/well, substrate 20 uM, 37° C., 90 minutes; read-out: Proteasome chymotrypsin-like activity inhibition IC50. In outline: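 S26 proteasome fraction from homogenized RPMI8226 myeloma cells in 20 mM Tris-HCl pH 8.0 (2 ug extract/well) incubated 90 min at 37 °C with compound serially diluted from 10 uM (0.5% DMSO).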
Sequence of Proteasome chymotrypsin-like activity (S26 protein from RPMI8226 cells) (P28074 60-263 limits assumed): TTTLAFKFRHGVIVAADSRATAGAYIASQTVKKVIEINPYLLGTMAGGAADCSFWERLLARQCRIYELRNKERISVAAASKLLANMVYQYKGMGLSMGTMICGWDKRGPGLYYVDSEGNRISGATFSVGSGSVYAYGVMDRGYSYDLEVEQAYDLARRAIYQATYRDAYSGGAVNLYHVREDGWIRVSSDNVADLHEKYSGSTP

Take `CC(C)C[C@H](NC(=O)C1(Cc2cccc(Cl)c2)CC(CNC(=O)c2cc(-c3ccccc3)nn2C(C)C)=NO1)B(O)O` (stereo partly drawn) [Example 249, ((1R)-1-(5-(3-chlorobenzyl)-3-((1-isopropyl-3-phenyl-1H-pyrazol-5-carboxamido)methyl)-4,5-dihydroisoxazol-5-carboxamido)-3-methylbutyl)boronic acid]: the IC50 was under 10 nM.

Turning to `CC(C)C[C@H](NC(=O)C1(Cn2cccn2)CC(CNC(=O)c2cccn3ccnc23)=NO1)B(O)O` (stereo partly drawn) [Example 149, ((1R)-1-(5-((1H-pyrazol-1-yl)methyl)-3-((imidazo[1,2-a]pyridin-8-carboxamido)methyl)-4,5-dihydroisoxazol-5-carboxamido)-3-methylbutyl)boronic acid], the IC50 is under 10 nM.

Turning to `CC(C)C[C@H](NC(=O)C1(Cc2ccccc2)CC(CNC(=O)c2cccc3ncnn23)=NO1)B(O)O` (some centres unmarked) [Example 312], the concentration for half-maximal inhibition (IC50) was under 25 nM.

Consider `CC(C)C[C@H](NC(=O)C1CC(c2ccccc2)=NO1)B(O)O` (stereo partly drawn) [Example 1, ((1R)-3-methyl-1-(3-phenyl-4,5-dihydroisoxazol-5-carboxamido)butyl)boronic acid], for which the half-inhibitory concentration (IC50) was under 500 nM.

For the compound `O=C(N[C@@H](Cc1ccccc1)B(O)O)C1(Cc2ccccc2)CC(COc2cccc3ccccc23)=NO1` (stereo partly drawn) [Example 279, ((1R)-1-(5-benzyl-3-((naphthalen-1-yloxy)methyl)-4,5-dihydroisoxazol-5-carboxamido)-2-phenylethyl)boronic acid], the IC50 is under 10 nM.

For the compound `COc1ccc(COCC2=NOC(Cc3ccccc3)(C(=O)N[C@@H](Cc3ccccc3)B(O)O)C2)cc1` (stereo partly drawn) [Example 275, ((1R)-1-(5-benzyl-3-(((4-methoxybenzyl)oxy)methyl)-4,5-dihydroisoxazol-5-carboxamido)-2-phenylethyl)boronic acid], the half-maximal inhibitory concentration (IC50) was under 50 nM.

Regarding `COC[C@@H](NC(=O)c1nccc2ccccc12)C1=NOC(Cc2ccccc2)(C(=O)N[C@@H](CC(C)C)B(O)O)C1` (stereo partly drawn) [Example 185, ((1R)-1-(5-benzyl-3-((S)-1-(isoquinolin-1-carboxamido)-2-methoxyethyl)-4,5-dihydroisoxazol-5-carboxamido)-3-methylbutyl)boronic acid], the IC50 was under 10 nM.

Consider `COc1ccccc1-c1cccc(COCC2=NOC(Cc3ccccc3)(C(=O)N[C@@H](CC(C)C)B(O)O)C2)c1` (stereo partly drawn) [Example 58, [(1R)-1-[[5-benzyl-3-[[3-(2-methoxyphenyl)phenyl]methoxymethyl]-4H-1,2-oxazol-5-carbonyl]amino]-3-methyl-butyl]boronic acid], for which the IC50 was under 25 nM.

On to `CC(C)C[C@H](NC(=O)C1(Cc2ccccc2)CC(CNC(=O)c2ccc(-c3ccccc3)cc2)=NO1)B(O)O` (stereo partly drawn) [Example 94, ((1R)-1-(3-([1,1′-biphenyl]-4-carboxamidomethyl)-5-benzyl-4,5-dihydroisoxazol-5-carboxamido)-3-methylbutyl)boronic acid], for which the IC50 is under 10 nM.

With `CC(C)C[C@H](NC(=O)C1(Cc2ccccc2)CC(CNC(=O)c2cnccn2)=NO1)B(O)O` (stereo partly drawn) [Example 106, ((1R)-1-(5-benzyl-3-((pyrazin-2-carboxamido)methyl)-4,5-dihydroisoxazol-5-carboxamido)-3-methylbutyl)boronic acid], the IC50 is under 10 nM.

`CC(C)C[C@H](NC(=O)C1(Cc2ccccc2)CC(COc2cccc3ccccc23)=NO1)B(O)O` (some centres unmarked) [Example 278]: the concentration for half-maximal inhibition (IC50) was under 10 nM.

On to `CC(C)C[C@H](NC(=O)C1CC(c2ccc3ccccc3n2)=NO1)B(O)O` (stereo partly drawn) [Example 21, ((1R)-3-methyl-1-(3-(quinolin-2-yl)-4,5-dihydroisoxazol-5-carboxamido)butyl)boronic acid], for which the IC50 was under 250 nM.

As to `CC(C)C[C@H](NC(=O)C1(Cc2cccc(C(F)(F)F)c2)CC(CNC(=O)c2nccc3ccccc23)=NO1)B(O)O` (stereo partly drawn) [Example 215, ((1R)-1-(3-((isoquinolin-1-carboxamido)methyl)-5-(3-(trifluoromethyl)benzyl)-4,5-dihydroisoxazol-5-carboxamido)-3-methylbutyl)boronic acid], the IC50 was under 10 nM.

As for `CC(=O)Nc1ccc(C2=NOC(C(=O)N[C@@H](CC(C)C)B(O)O)C2)cc1` (stereo partly drawn) [Example 16, ((1R)-1-(3-(4-acetamidophenyl)-4,5-dihydroisoxazol-5-carboxamido)-3-methylbutyl)boronic acid], the concentration for half-maximal inhibition (IC50) was under 250 nM.

On to `COc1ccc(COCC2=NOC(Cc3ccccc3)(C(=O)N[C@@H](CC(C)C)B(O)O)C2)cc1` (some centres unmarked) [Example 274], for which the IC50 is under 100 nM.

For the compound `Cc1cc(C(=O)NCC2=NOC(Cc3cccc(Cl)c3)(C(=O)N[C@@H](CC(C)C)B(O)O)C2)n(C(C)C)n1` (stereo partly drawn) [Example 225, ((1R)-1-(5-(3-chlorobenzyl)-3-((1-isopropyl-3-methyl-1H-pyrazol-5-carboxamido)methyl)-4,5-dihydroisoxazol-5-carboxamido)-3-methylbutyl)boronic acid], the IC50 is under 10 nM.

In the case of `CC[C@H](NC(=O)C1(Cc2ccccc2)CC(CNC(=O)c2cc(Cl)ccc2Cl)=NO1)B(O)O` (stereo partly drawn) [Example 314, ((1R)-1-(5-benzyl-3-((2,5-dichlorobenzamido)methyl)-4,5-dihydroisoxazol-5-carboxamido)propyl)boronic acid], the IC50 is under 10 nM.

On to `CC(C)C[C@H](NC(=O)C1CC(c2ccc(-c3ccccn3)cc2)=NO1)B(O)O` (stereo partly drawn) [Example 26, ((1R)-3-methyl-1-(3-(4-(pyridin-2-yl)phenyl)-4,5-dihydroisoxazol-5-carboxamido)butyl)boronic acid], for which the IC50 is under 50 nM.

On to `CC(C)C[C@H](NC(=O)C1(Cc2ccccc2)CC(COCc2cccn3ccnc23)=NO1)B(O)O` (some centres unmarked) [Example 266], for which the IC50 was under 10 nM.

With `CC(C)C[C@H](NC(=O)C1(Cc2ccccc2)CC(CNC(=O)c2cc(-c3ccncc3)nn2C(C)C)=NO1)B(O)O` (stereo partly drawn) [Example 229, ((1R)-1-(5-benzyl-3-((1-isopropyl-3-(pyridin-4-yl)-1H-pyrazol-5-carboxamido)methyl)-4,5-dihydroisoxazol-5-carboxamido)-3-methylbutyl)boronic acid], the concentration for half-maximal inhibition (IC50) is under 10 nM.

On to `CC(C)C[C@H](NC(=O)C1(Cc2ccccc2)CC(C(C)(C)NC(=O)c2nccc3ccccc23)=NO1)B(O)O` (stereo partly drawn) [Example 157, [(1R)-1-[[5-benzyl-3-[1-(isoquinolin-1-carbonylamino)-1-methyl-ethyl]-4H-1,2-oxazol-5-carbonyl]amino]-3-methyl-butyl]boronic acid], for which the half-inhibitory concentration (IC50) was under 10 nM.

In the case of `Cc1cccc(CC2(C(=O)N[C@@H](CC(C)C)B(O)O)CC(CNC(=O)c3cc(-c4ccccc4)nn3C(C)C)=NO2)c1` (stereo partly drawn) [Example 236, ((1R)-1-(3-((1-isopropyl-3-phenyl-1H-pyrazol-5-carboxamido)methyl)-5-(3-methylbenzyl)-4,5-dihydroisoxazol-5-carboxamido)-3-methylbutyl)boronic acid], the IC50 was under 10 nM.

`CC(C)C[C@H](NC(=O)C1(Cc2ccccc2)CC(CNC(=O)c2ccnn2C2CCOCC2)=NO1)B(O)O` (stereo partly drawn) [Example 197, ((1R)-1-(5-benzyl-3-((1-(tetrahydro-2H-pyran-4-yl)-1H-pyrazol-5-carboxamido)methyl)-4,5-dihydroisoxazol-5-carboxamido)-3-methylbutyl)boronic acid]: the IC50 is under 10 nM.

In general, IC50 refers to the concentration that gives 50% inhibition.
